According to ChEMBL document CHEMBL1158331, “Insect Antifeedant Isoryanodane Diterpenes from Persea indica” (1997):

Key:
Spodoptera litura [1] = assay: Antifeedant activity against Spodoptera litura third instar larvae assessed as feeding index at 1000 ppm by choice leaf disk assay; type: functional
Spodoptera litura [2] = assay: Antifeedant activity against Spodoptera litura third instar larvae by choice leaf disk assay; type: functional; set-up: unit not given here

| Structure (SMILES) | Activity (Spodoptera litura [1]) | logEC50 (Spodoptera litura [2]) |
| --- | --- | --- |
| CC(C)[C@@]1(O)C[C@@]2(O)[C@]3(C)C[C@]4(O)O[C@H]([C@@]5(O)[C@@H](C)CC[C@]53O)[C@@]2(O)[C@]41C [PERSEANOL] | 11.43 | 2.23 |
| CC(C)[C@@H]1C[C@@H]2[C@@]3(O)[C@@H]4O[C@@](O)(C[C@]2(C)[C@]2(O)CC[C@H](C)[C@H]42)[C@]13C [INDICOL] | 49.39 | >3 |
| CC(C)[C@@]1(O)C[C@@]2(O)[C@@]3(C)C[C@]4(O)O[C@@]5([C@H](O)[C@@H](C)CC[C@]35O)[C@@]2(O)[C@@]41C [CINNZEYLANOL] | – | 1.93 |
| C/C=C(\C)C(=O)O[C@H]1C[C@@H](OC(C)=O)[C@@]2(C(=O)OC)CO[C@H]3[C@@H](O)[C@@](C)([C@]45O[C@@]4(C)[C@@H]4C[C@H]5O[C@@H]5OC=C[C@@]54O)[C@H]4[C@]1(CO[C@]4(O)C(=O)OC)[C@@H]32 [AZADIRACHTIN A] | – | 0.25 |
| CC(C)[C@@]1(O)[C@@H](OC(=O)c2cc[nH]c2)[C@@]2(O)[C@]3(C)C[C@@]4(O)O[C@@]5([C@H](O)[C@@H](C)CC[C@]35O)[C@@]2(O)[C@@]41C [RYANODINE] | – | 1.15 |
| CC(C)[C@@]1(O)[C@@H](O)[C@@]2(O)[C@@]3(C)C[C@]4(O)O[C@@]5([C@H](O)[C@@H](C)CC[C@]35O)[C@@]2(O)[C@]14C [RYANODOL] | – | 2.18 |
| CC(C)[C@@]1(O)C[C@@]2(O)[C@]3(C)C[C@]4(O)O[C@H]([C@H]5[C@@H](C)CC[C@]53O)[C@@]2(O)[C@]41C [VIGNATICOL] | 12.57 | 1.97 |
